Test [1] concerns the target T1, Pim1 kinase (Homo sapiens, UniProt P11309). As to the kind of experiment: KinaseGlo Pim1 ATP depletion assay. It counts as biochemical. To be noted: Table 4, 2.5 nM PIM1, 20 μM ATP, 40 μM BAD peptide. As to the method:
The activity of PIM1 is measured using a luciferase-luciferin based ATP detection reagent to quantify ATP depletion resulting from kinase-catalyzed phosphoryl transfer to a peptide substrate. Compounds to be tested are dissolved in 100% DMSO and directly distributed into white 384-well plates at 0.5 μl per well. […] After 15 minutes, 10 μl of 40 μM ATP in assay buffer is added. […] The reaction is performed until approximately 50% of the ATP is depleted, then stopped with the addition of 20 μl KinaseGlo Plus (Promega Corporation) solution. The stopped reaction is incubated for 10 minutes and the remaining ATP detected via luminescence on the Victor2 (Perkin Elmer).

Test [2] has as its target T2, Pim3 kinase (Homo sapiens, UniProt Q86V86). As to the kind of experiment: KinaseGlo Pim3 ATP depletion assay. It counts as biochemical. To be noted: Table 4, 40 μM ATP, 100 μM BAD peptide. The method, then: (§1) The activity of PIM3 is measured using a luciferase-luciferin based ATP detection reagent to quantify ATP depletion resulting from kinase-catalyzed phosphoryl transfer to a peptide substrate. Compounds to be tested are dissolved in 100% DMSO and directly distributed into white 384-well plates at 0.5 μl per well. […] After 15 minutes, 10 μl of 80 μM ATP in assay buffer is added. Final assay concentrations are 5 nM PIM1, 40 μM ATP, 100 μM BAD peptide and 2.5% DMSO. The reaction is performed until approximately 50% of the ATP is depleted, then stopped by the addition of 20 μl KinaseGlo Plus (Promega Corporation) solution. The stopped reaction is incubated for 10 minutes and the remaining ATP detected via luminescence on the Victor2 (Perkin Elmer).
On the technique in general: In Kinase-Glo more light means more ATP remaining.

Test [3] has as its system KMS11 (human myeloma cell line). As to the kind of experiment: Cell proliferation assay (CellTiter-Glo) in KMS11 cells. It counts as cell-based. To be noted: KMS-11, 72 h, read-out: KMS11-luc EC50. In outline: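 KMS11 cells at 2000 per well in IMDM/10% FBS were exposed to compound for 3 days. Viability was read by CellTiter-Glo luminescence.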
A general note: ATP-based viability assays read luminescence as a measure of living cells.

Test [4] has as its target T3, Pim2 kinase (Homo sapiens, UniProt Q9P1W9). As to the kind of experiment: KinaseGlo Pim2 ATP depletion assay. It counts as biochemical. The settings on record: Table 4, 5 nM PIM2, 4 μM ATP, 10 μM BAD peptide. As to the method: as §1, with “of PIM2” for “of PIM3”, “of 8” for “of 80”, “nM PIM2, 4” for “nM PIM1, 40”, “ATP, 10” for “ATP, 100”, “stopped with” for “stopped by”

Test [5] deals with T2, Pim3 kinase. As to the kind of experiment: Pim3 AlphaScreen assay (high ATP).
Test [6] deals with T1, Pim1 kinase. In words: Pim1 AlphaScreen assay (high ATP). For orientation: Alpha assays give light when donor and acceptor beads are brought close together.
The target in test [7] is T3, Pim2 kinase. In words: Pim2 AlphaScreen assay (high ATP).
Protocol: The activity of Pim 1, Pim 2, & Pim 3 is measured using a homogeneous bead based system quantifying the amount of phosphorylated peptide substrate resulting from kinase-catalyzed phosphoryl transfer to a peptide substrate. Compounds to be tested are dissolved in 100% DMSO and directly distributed to a white 384-well plate at 0.25 μl per well. […] This is followed by the addition of 5 μl/well of Pim 1, Pim 2 or Pim 3 kinase in assay buffer (concentrations described below). Final assay concentrations (described below) are in 2.5% DMSO. The reactions are performed for ˜2 hours, then stopped by the addition of 10 μl of 0.75 μg/ml anti-phospho Ser/Thr antibody (Cell Signaling), 10 μg/ml Protein A AlphaScreen beads (Perkin Elmer), and 10 μg/ml streptavidin coated AlphaScreen beads in stop/detection buffer (50 mM EDTA, 95 mM Tris, pH=7.5, 0.01% Tween-20). The stopped reactions are incubated overnight in the dark. The phosphorylated peptide is detected via an oxygen anion initiated chemiluminescence/fluorescence cascade using the Envision plate reader (Perkin Elmer).

Like-named read-outs stand apart in the source and are kept apart here.

T3 sequence (Q9P1W9 whole entry): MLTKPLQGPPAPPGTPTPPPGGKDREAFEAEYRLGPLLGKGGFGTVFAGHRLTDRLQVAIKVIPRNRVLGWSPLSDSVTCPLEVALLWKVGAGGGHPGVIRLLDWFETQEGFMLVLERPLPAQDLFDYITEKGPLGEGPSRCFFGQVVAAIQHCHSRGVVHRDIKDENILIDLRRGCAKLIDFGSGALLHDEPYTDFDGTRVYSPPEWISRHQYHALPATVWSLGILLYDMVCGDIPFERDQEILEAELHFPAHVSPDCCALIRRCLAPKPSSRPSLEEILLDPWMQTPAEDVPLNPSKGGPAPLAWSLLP
T1 sequence (P11309 whole entry): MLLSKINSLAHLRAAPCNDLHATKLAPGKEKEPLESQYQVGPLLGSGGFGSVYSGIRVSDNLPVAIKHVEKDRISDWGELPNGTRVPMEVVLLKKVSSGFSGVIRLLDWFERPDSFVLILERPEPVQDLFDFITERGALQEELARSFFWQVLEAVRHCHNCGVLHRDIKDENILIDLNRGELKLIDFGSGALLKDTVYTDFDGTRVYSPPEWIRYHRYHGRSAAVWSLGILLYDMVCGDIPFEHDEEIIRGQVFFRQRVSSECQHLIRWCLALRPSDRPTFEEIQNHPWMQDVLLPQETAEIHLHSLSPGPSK

Broadly, the IC50 is the point on the concentration scale where inhibition reaches its midpoint. A higher IC50 goes with lower potency. What is called EC50 is the concentration that produces a half-maximal response. Consider `C[C@H]1C[C@@H](c2ccncc2NC(=O)c2ccc(F)c(-c3c(F)cccc3F)n2)C[C@@H](O)C1(O)CO` (stereo in doubt) [Example 59, 6-(2,6-difluorophenyl)-N-(4-((1R,3R,4R,5S)-3,4-dihydroxy-4-(hydroxymethyl)-5-methylcyclohexyl)pyridin-3-yl)-5-fluoropicolinamide], for which the IC50 in test [1] came out at 0.0003 µM; in test [2], 0.0013 µM; in test [4], 0.0015 µM. Moreover, in test [3] (Table 4, 3 days), the EC50 came out at 1.07 µM.

On to `CC[C@]1(O)[C@H](O)C[C@H](c2ccncc2NC(=O)c2nc(-c3c(F)cccc3F)ccc2N)C[C@@H]1C` [Example 32, 3-amino-6-(2,6-difluorophenyl)-N-(4-((1R,3R,4R,5S)-4-ethyl-3,4-dihydroxy-5-methylcyclohexyl)pyridin-3-yl) picolinamide], for which the values for the IC50 in test [1], in test [2] and in test [4] were 0.0004 µM, 0.0014 µM and 0.001 µM, respectively. The EC50 in test [3] (Table 4, 3 days) came to 0.88 µM.

For the molecule `CC[C@]1(O)[C@H](O)C[C@H](c2ccncc2NC(=O)c2nc(-c3c(F)cccc3F)c(F)cc2N)C[C@@H]1C` [Example 33, 3-amino-6-(2,6-difluorophenyl)-N-(4-((1R,3R,4R,5S)-4-ethyl-3,4-dihydroxy-5-methylcyclohexyl)pyridin-3-yl)-5-fluoropicolinamide], the results for the IC50 in test [1], in test [2] and in test [4] were 0.0005 µM, 0.0018 µM and 0.0011 µM, respectively. Also, the EC50 in test [3] (Table 4, 3 days) is 0.58 µM.

For `CC[C@]1(O)[C@H](O)C[C@H](c2ccncc2NC(=O)c2nc(-c3c(F)cccc3F)ncc2N)C[C@@H]1C` [Example 34, 5-amino-2-(2,6-difluorophenyl)-N-(4-((1R,3R,4R,5S)-4-ethyl-3,4-dihydroxy-5-methylcyclohexyl)pyridin-3-yl) pyrimidine-4-carboxamide], the IC50 in test [1] was determined as 0.0006 µM; in test [2] it was 0.0017 µM; in test [4], 0.0013 µM. In test [3] (Table 4, 3 days), the EC50 was found to be 0.61 µM.

With `CC[C@]1(O)[C@H](C)C[C@H](c2ccncc2NC(=O)c2nc(-c3c(F)cccc3F)ncc2N)C[C@@H]1O` [Example 35, 5-amino-2-(2,6-difluorophenyl)-N-(4-((1S,3S,4S,5R)-4-ethyl-3,4-dihydroxy-5-methylcyclohexyl)pyridin-3-yl) pyrimidine-4-carboxamide], the IC50 in test [1] worked out at 0.0495 µM; in test [2] it was 0.15 µM; in test [4], 0.676 µM. In addition, in test [3] (Table 4, 3 days), the EC50 was at least 10 µM.

For `C[C@H]1C[C@@H](c2ccncc2NC(=O)c2cncc(-c3ccccc3)n2)C[C@@H](O)[C@]1(C)O` [Example 36, N-(4-((1R,3R,4R,5S)-3,4-dihydroxy-4,5-dimethylcyclohexyl)pyridin-3-yl)-6-phenylpyrazine-2-carboxamide], the values for the IC50 in test [1], in test [2] and in test [4] were 0.525 µM, 0.307 µM and 5.41 µM, respectively.

Take `C[C@H]1C[C@@H](c2ccncc2NC(=O)c2nc(-c3ccccc3)cnc2N)C[C@@H](O)[C@]1(C)O` [Example 37, 3-amino-N-(4-((1R,3R,4R,5S)-3,4-dihydroxy-4,5-dimethylcyclohexyl)pyridin-3-yl)-6-phenylpyrazine-2-carboxamide]: the results for the IC50 in test [1], in test [2] and in test [4] were 0.0013 µM, 0.0025 µM and 0.0049 µM, respectively.

As to `C[C@H]1C[C@@H](c2ccncc2NC(=O)c2nc(Br)ccc2N)C[C@@H](O)[C@]1(C)O` [Example 38, 3-amino-6-bromo-N-(4-((1R,3R,4R,5S)-3,4-dihydroxy-4,5-dimethylcyclohexyl)pyridin-3-yl) picolinamide], the IC50 was found to be 0.0036 µM in test [1], 0.0093 µM in test [2] and 0.0243 µM in test [4]. Also, in test [3] (Table 4, 3 days), the EC50 was at least 10 µM.

`C[C@H]1C[C@@H](c2ccncc2NC(=O)c2ccnc(-c3c(F)cccc3F)n2)C[C@@H](O)[C@@]1(O)CO` [Example 39, 2-(2,6-difluorophenyl)-N-(4-((1R,3R,4S,5S)-3,4-dihydroxy-4-(hydroxymethyl)-5-methylcyclohexyl)pyridin-3-yl) pyrimidine-4-carboxamide]: the IC50 in test [1] was 0.0047 µM; in test [2] it was 0.0045 µM; in test [4], 0.0255 µM. Further, the EC50 in test [3] (Table 4, 3 days) is at least 10 µM.

For the molecule `CC[C@]1(O)[C@H](O)C[C@H](c2ccncc2NC(=O)c2ccc(F)c(-c3c(F)cccc3F)n2)C[C@@H]1C` [Example 41, 6-(2,6-difluorophenyl)-N-(4-((1R,3R,4R,5S)-4-ethyl-3,4-dihydroxy-5-methylcyclohexyl)pyridin-3-yl)-5-fluoropicolinamide], the IC50 in test [1] came out at 0.0009 µM; in test [2], 0.0029 µM; in test [4] it was 0.0023 µM.

Consider `C[C@H]1C[C@@H](c2ccncc2NC(=O)c2nc(-c3nc(Cl)c(C#N)cc3F)ccc2N)C[C@@H](O)[C@]1(C)O` [Example 131, 5-amino-6′-chloro-5′-cyano-N-(4-((1R,3R,4R,5S)-3,4-dihydroxy-4,5-dimethylcyclohexyl)pyridin-3-yl)-3′-fluoro-2,2′-bipyridine-6-carboxamide], for which the IC50 is 5.09 µM in test [5], 0.146 µM in test [6], 0.0516 µM in test [4] and 17 µM in test [7]. The EC50 in test [3] (Table 4, 3 days) was at least 10 µM; in test [3] (Table 5, 3 days), over 10 µM.

With `C[C@H]1C[C@@H](c2ccncc2NC(=O)c2nc(-c3cc(F)ccn3)ccc2N)C[C@@H](O)[C@]1(C)O` [Example 132, 5-amino-N-(4-((1R,3R,4R,5S)-3,4-dihydroxy-4,5-dimethylcyclohexyl)pyridin-3-yl)-4′-fluoro-2,2′-bipyridine-6-carboxamide], the IC50 is over 25 µM in test [5], 2.53 µM in test [6], 0.162 µM in test [4] and over 25 µM in test [7]. Besides, the EC50 in test [3] (Table 4, 3 days) turned out to be 7.14 µM; in test [3] (Table 5, 3 days), 7.14 µM.

Consider `CC(=O)c1ccc(F)c(-c2ccc(N)c(C(=O)Nc3cnccc3[C@H]3C[C@@H](O)[C@](C)(O)[C@@H](C)C3)n2)n1` [Example 133, 6′-acetyl-5-amino-N-(4-((1R,3R,4R,5S)-3,4-dihydroxy-4,5-dimethylcyclohexyl)pyridin-3-yl)-3′-fluoro-2,2′-bipyridine-6-carboxamide], for which the IC50 in test [5] was 0.182 µM; in test [6] it was 0.00719 µM; in test [4], 0.0054 µM; in test [7] it was 2.63 µM. For the same molecule, the half-maximal effective concentration (EC50) in test [3] (Table 4, 3 days) amounted to 5.37 µM; in test [3] (Table 5, 3 days), 5.37 µM.

With `C[C@H]1C[C@@H](c2ccncc2NC(=O)c2nc(-c3ccc(F)cn3)ccc2N)C[C@@H](O)[C@]1(C)O` [Example 134, 5-amino-N-(4-((1R,3R,4R,5S)-3,4-dihydroxy-4,5-dimethylcyclohexyl)pyridin-3-yl)-5′-fluoro-2,2′-bipyridine-6-carboxamide], the IC50 in test [5] turned out to be 3.39 µM; in test [6], 0.0787 µM; in test [4], 0.0507 µM; in test [7], 14.3 µM. For the same molecule, the EC50 in test [3] (Table 4, 3 days) is 4.15 µM; in test [3] (Table 5, 3 days), 4.15 µM.

In the case of `C[C@H]1C[C@@H](c2ccncc2NC(=O)c2nc(-c3cccc(F)n3)ccc2N)C[C@@H](O)[C@]1(C)O` [Example 135, 5-amino-N-(4-((1R,3R,4R,5S)-3,4-dihydroxy-4,5-dimethylcyclohexyl)pyridin-3-yl)-6′-fluoro-2,2′-bipyridine-6-carboxamide], the IC50 was found to be 1.13 µM in test [5], 0.0335 µM in test [6], 0.0142 µM in test [4] and 5.69 µM in test [7]. The EC50 in test [3] (Table 4, 3 days) was at least 10 µM; in test [3] (Table 5, 3 days), over 10 µM.

(Values after patent US20120225061A1, “TETRASUBSTITUTED CYCLOHEXYL COMPOUNDS AS KINASE INHIBITORS” (priority 2011, published 2012).)
